Data reported in PMC6688997 (Nature Communications, 2019).
pIC50: −log10 of the molar value. “And” between values parts separate entries of the source, which are not always exact repeats. Equal values may be shown once. Read-outs that look alike come from different tables or passages of the source.

Experiments:
[1] = Body weight of Ba/F3-CD74-ROS1-WT xenograft mice; type: in vivo, mouse; conditions: for Body Weight Change(%) (average / SD) / Body Weight Change(%) (individual): DS-6051b 100 mg/kg po; for Body Weight Change(%) (average / SD): N 6
[2] = biological target: LCK (Homo sapiens, UniProt P06239); experiment: Kinase assay, ATP Km; type: biochemical
[3] = biological target: T1, ARG (Homo sapiens, UniProt P42684); experiment: Kinase assay, ATP Km; type: biochemical
[4] = biological target: MARK2 (Homo sapiens, UniProt Q7KZI7); experiment: Kinase assay, ATP Km; type: biochemical
[5] = biological target: IRAK1 (Homo sapiens, UniProt P51617); experiment: Kinase assay, ATP Km; type: biochemical
[6] = biological target: EPHA2 (Homo sapiens, UniProt P29317); experiment: Kinase assay, ATP Km; type: biochemical
[7] = biological target: T2, p70S6Kβ (Homo sapiens, UniProt Q9UBS0); experiment: Kinase assay, ATP Km; type: biochemical
T2 construct: purchased Carna Biosciences

[8] = biological target: T3, TYRO3 (Homo sapiens, UniProt Q06418); experiment: Kinase assay, ATP Km; type: biochemical
T3 construct: purchased Carna Biosciences

[9] = biological target: CaMK1δ (Homo sapiens, UniProt Q8IU85); experiment: Kinase assay, ATP Km; type: biochemical
[10] = biological target: CDC2/CycB1 (Homo sapiens, UniProt P06493); experiment: Kinase assay, ATP Km; type: biochemical
[11] = biological target: T4, PKD3 (Homo sapiens, UniProt O94806); experiment: Kinase assay, ATP Km; type: biochemical
T4 construct: purchased Carna Biosciences

[12] = biological target: CaMK4 (Homo sapiens, UniProt Q16566); experiment: Kinase assay, ATP Km; type: biochemical
[13] = biological target: T5, PKD1 (Homo sapiens, UniProt Q15139); experiment: Kinase assay, ATP Km; type: biochemical
T5 construct: purchased Carna Biosciences

[14] = biological target: PIM3 (Homo sapiens, UniProt Q86V86); experiment: Kinase assay, ATP Km; type: biochemical
[15] = biological target: T6, ACK (Homo sapiens, UniProt Q07912); experiment: Kinase assay, 1 mM ATP; type: biochemical
T6 construct: purchased Carna Biosciences, Inc. (Kobe, Japan); assay run by the vendor

[16] = biological target: AMPKα1/β1/γ1 (Homo sapiens, UniProt Q13131); experiment: Kinase assay, 1 mM ATP; type: biochemical
Method: (§1) An off-chip mobility shift assay was performed by Carna Biosciences, Inc. (Kobe, Japan), according to their product instructions. […] The IC50 values were estimated according to the four-parameter logistic model.

[17] = biological target: T1, ARG; experiment: Kinase assay, 1 mM ATP; type: biochemical
Method: as §1

[18] = biological target: BRSK1 (Homo sapiens, UniProt Q8TDC3); experiment: Kinase assay, 1 mM ATP; type: biochemical
Method: as §1

[19] = biological target: BTK (Homo sapiens, UniProt Q06187); experiment: Kinase assay, 1 mM ATP; type: biochemical
Method: as §1

[20] = biological target: CaMK1α (Homo sapiens, UniProt Q14012); experiment: Kinase assay, 1 mM ATP; type: biochemical
Method: as §1

[21] = biological target: T7, FGFR3 (Homo sapiens, UniProt P22607); experiment: Kinase assay, 1 mM ATP; type: biochemical
T7 construct: purchased Carna Biosciences
Method: as §1

[22] = biological target: T8, FRK (Homo sapiens, UniProt P42685); experiment: Kinase assay, 1 mM ATP; type: biochemical
T8 construct: purchased Carna Biosciences
Method: as §1

[23] = biological target: T9, IGF1R (Homo sapiens, UniProt P08069); experiment: Kinase assay, 1 mM ATP; type: biochemical
T9 construct: purchased Carna Biosciences
Method: as §1

[24] = biological target: T10, JAK3 (Homo sapiens, UniProt P52333); experiment: Kinase assay, 1 mM ATP; type: biochemical
T10 construct: purchased Carna Biosciences
Method: as §1

[25] = biological target: T11, NEK1 (Homo sapiens, UniProt Q96PY6); experiment: Kinase assay, 1 mM ATP; type: biochemical
T11 construct: purchased Carna Biosciences
Method: as §1

[26] = biological target: T12, NEK6 (Homo sapiens, UniProt Q9HC98); experiment: Kinase assay, 1 mM ATP; type: biochemical
T12 construct: purchased Carna Biosciences
Method: as §1

[27] = biological target: T13, RSK1 (Homo sapiens, UniProt Q15418); experiment: Kinase assay, 1 mM ATP; type: biochemical
T13 construct: purchased Carna Biosciences
Method: as §1

[28] = biological target: T14, SRM (Homo sapiens, UniProt Q9H3Y6); experiment: Kinase assay, 1 mM ATP; type: biochemical
T14 construct: purchased Carna Biosciences
Method: as §1

[29] = biological target: SYK (Homo sapiens, UniProt P43405); experiment: Kinase assay, 1 mM ATP; type: biochemical
Method: as §1

[30] = cited from earlier work

T6 sequence (Q07912 whole entry): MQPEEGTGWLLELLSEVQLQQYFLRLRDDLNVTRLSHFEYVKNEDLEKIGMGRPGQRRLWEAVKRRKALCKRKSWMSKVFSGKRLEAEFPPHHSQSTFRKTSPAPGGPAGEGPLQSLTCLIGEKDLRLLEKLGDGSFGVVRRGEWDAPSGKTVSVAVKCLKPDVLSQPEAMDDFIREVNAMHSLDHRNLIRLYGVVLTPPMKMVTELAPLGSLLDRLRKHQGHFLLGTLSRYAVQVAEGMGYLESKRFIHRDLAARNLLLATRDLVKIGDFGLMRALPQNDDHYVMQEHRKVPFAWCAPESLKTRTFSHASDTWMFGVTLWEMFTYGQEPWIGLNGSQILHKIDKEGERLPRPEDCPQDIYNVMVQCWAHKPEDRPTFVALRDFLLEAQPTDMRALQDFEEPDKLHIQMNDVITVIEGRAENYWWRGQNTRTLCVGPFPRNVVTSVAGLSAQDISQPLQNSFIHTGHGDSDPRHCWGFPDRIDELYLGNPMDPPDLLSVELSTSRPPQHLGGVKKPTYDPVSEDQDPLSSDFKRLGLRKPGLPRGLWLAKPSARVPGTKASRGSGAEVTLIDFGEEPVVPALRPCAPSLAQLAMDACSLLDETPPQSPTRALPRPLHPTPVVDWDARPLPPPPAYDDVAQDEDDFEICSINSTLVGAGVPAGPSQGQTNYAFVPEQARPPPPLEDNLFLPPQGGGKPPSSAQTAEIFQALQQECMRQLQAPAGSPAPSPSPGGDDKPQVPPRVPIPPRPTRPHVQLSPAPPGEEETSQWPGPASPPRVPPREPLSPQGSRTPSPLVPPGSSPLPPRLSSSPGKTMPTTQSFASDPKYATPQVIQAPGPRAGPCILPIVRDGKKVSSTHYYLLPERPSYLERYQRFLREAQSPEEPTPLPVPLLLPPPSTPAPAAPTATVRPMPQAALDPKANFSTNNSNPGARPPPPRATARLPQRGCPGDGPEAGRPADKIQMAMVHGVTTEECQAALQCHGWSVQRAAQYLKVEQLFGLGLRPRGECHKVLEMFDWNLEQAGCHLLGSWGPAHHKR
T1 sequence (P42684 whole entry): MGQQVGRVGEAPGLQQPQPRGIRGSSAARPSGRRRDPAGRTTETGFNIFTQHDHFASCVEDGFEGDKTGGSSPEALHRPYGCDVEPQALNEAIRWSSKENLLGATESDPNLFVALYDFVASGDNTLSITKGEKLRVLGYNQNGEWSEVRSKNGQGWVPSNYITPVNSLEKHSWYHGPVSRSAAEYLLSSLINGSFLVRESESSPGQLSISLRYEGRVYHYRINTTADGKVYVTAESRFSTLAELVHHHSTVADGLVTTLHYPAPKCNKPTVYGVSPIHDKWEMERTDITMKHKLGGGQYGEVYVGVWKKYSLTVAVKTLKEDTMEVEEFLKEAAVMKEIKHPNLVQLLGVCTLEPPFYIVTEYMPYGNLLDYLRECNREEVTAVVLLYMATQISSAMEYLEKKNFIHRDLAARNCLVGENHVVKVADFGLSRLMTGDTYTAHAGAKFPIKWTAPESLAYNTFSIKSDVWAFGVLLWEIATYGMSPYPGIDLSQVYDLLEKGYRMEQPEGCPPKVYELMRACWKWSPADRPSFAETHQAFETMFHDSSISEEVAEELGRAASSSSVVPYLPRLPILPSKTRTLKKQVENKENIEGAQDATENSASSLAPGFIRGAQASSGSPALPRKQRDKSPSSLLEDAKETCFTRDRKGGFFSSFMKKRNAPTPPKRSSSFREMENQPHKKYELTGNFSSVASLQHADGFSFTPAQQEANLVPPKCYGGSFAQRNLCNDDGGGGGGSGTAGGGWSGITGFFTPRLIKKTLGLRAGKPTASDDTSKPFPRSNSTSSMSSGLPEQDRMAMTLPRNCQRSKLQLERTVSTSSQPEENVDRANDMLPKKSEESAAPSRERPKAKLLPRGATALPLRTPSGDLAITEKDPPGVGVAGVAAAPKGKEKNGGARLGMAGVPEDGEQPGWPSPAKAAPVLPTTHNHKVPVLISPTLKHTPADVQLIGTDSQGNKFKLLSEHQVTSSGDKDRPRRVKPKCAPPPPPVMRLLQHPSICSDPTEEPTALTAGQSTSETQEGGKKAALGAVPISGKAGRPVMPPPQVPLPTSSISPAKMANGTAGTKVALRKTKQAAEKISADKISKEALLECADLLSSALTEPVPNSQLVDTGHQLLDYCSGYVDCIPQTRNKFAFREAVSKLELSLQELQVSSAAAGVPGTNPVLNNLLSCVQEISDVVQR
T2 sequence (Q9UBS0 whole entry): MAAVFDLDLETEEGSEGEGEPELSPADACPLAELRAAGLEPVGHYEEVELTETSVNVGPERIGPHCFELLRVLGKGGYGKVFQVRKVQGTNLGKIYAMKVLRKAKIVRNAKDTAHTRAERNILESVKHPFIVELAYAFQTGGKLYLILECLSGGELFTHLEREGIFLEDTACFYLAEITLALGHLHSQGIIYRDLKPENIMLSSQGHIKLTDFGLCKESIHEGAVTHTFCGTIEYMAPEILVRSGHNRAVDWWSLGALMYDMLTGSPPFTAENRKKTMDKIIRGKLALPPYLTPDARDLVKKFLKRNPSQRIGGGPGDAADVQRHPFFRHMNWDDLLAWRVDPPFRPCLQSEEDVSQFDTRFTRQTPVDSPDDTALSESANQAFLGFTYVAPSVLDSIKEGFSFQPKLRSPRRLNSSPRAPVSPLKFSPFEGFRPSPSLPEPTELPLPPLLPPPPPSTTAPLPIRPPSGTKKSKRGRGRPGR
Sequence of MARK2 (Q7KZI7 whole entry): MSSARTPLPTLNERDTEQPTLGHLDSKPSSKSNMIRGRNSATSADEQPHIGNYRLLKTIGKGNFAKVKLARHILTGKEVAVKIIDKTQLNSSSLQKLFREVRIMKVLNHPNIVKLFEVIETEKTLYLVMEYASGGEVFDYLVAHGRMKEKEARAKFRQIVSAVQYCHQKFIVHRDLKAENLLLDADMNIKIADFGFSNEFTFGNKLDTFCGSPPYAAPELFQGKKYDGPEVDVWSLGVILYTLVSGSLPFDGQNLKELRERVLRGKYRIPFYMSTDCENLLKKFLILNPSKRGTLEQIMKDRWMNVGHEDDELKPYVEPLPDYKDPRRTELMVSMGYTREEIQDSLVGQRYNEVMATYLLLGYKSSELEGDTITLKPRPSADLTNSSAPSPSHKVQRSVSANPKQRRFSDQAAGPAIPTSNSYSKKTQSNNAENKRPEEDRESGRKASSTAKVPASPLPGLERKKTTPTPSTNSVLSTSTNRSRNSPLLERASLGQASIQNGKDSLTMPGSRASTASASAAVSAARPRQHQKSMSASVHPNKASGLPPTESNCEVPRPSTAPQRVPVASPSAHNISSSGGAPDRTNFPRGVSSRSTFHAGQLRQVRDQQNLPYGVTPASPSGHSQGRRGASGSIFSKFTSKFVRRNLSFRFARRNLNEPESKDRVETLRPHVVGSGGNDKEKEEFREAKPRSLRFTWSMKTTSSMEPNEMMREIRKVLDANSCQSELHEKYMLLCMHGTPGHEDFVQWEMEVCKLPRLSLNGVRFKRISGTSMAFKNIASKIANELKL
T7 sequence (P22607 23-806): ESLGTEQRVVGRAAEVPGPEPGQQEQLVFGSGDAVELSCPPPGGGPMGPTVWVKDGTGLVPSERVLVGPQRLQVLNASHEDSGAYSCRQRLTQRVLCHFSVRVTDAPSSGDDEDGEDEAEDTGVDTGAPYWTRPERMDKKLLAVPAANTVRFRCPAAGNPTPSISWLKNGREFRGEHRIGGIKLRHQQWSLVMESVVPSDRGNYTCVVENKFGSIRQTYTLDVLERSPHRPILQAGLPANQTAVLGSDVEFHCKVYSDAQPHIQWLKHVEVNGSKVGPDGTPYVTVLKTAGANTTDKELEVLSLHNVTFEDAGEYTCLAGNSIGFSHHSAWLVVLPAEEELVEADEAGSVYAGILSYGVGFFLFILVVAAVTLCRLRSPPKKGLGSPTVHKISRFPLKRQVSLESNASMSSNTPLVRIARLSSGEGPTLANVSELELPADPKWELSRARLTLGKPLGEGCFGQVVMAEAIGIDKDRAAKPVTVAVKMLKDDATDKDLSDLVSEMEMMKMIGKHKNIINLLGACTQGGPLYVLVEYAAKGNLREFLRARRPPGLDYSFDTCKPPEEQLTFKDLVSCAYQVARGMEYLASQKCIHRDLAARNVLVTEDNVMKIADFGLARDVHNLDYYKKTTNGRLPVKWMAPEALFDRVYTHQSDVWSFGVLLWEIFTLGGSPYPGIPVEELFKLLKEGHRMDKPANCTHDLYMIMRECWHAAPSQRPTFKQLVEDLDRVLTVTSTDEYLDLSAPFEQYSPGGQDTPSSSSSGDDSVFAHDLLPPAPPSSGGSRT
Sequence of CDC2/CycB1 (P06493 whole entry): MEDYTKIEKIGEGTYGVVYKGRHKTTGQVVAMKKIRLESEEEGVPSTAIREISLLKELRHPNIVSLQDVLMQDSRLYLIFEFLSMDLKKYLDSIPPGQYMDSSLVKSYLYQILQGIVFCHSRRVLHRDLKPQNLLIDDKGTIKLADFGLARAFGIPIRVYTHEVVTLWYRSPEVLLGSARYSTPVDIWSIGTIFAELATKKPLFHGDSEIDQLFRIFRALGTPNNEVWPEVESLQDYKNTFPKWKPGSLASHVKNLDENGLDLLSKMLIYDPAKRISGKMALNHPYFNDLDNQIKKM
Sequence of CDC2/CycB1 (P14635 whole entry partner): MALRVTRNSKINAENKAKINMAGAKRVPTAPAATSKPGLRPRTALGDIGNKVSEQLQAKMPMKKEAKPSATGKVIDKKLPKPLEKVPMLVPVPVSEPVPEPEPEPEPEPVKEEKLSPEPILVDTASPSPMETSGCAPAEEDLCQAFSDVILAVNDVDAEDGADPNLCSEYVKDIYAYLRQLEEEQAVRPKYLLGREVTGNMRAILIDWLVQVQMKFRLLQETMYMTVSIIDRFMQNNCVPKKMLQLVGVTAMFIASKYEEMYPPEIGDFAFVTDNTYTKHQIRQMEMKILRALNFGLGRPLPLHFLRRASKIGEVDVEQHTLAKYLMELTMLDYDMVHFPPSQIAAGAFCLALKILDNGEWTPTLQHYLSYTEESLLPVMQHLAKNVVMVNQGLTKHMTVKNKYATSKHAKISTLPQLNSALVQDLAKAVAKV

SMILES: C[C@@H](N)COc1ccc(-c2cnc3ccc(N[C@H](C)c4cccc(F)c4)nn23)cc1.O=C(O)CCCCC(=O)O [DS-6051b]
- Body Weight Change(%) (average / SD) ([1]; day 3, average): -3.0%
- Body Weight Change(%) (individual) ([1]; day 3, individual animals): -2.5% and -2.7% and -6.7% and -2.8% and -0.5%
- Body Weight Change(%) (average / SD) ([1]; day 4, average): -2.2%
- Body Weight Change(%) (individual) ([1]; day 4, individual animals): -3.4% and -2% and -2.7% and -4% and -2.3% and 1.5%
- Body weight loss ([1]; ≥30 mg/kg): without severe body weight loss
- inhibition at 0.04 µM [2]: 66.5%
- inhibition at 0.04 µM [3]: 37.3%
- inhibition at 0.04 µM [4]: 30.4%
- inhibition at 0.04 µM [5]: 19.3%
- inhibition at 0.04 µM [6]: 18.4%
- inhibition at 0.04 µM [7]: 9.8%
- inhibition at 0.04 µM [8]: 9.5%
- inhibition at 0.04 µM [9]: 5.1%
- inhibition at 0.04 µM [10]: 3.9%
- inhibition at 0.04 µM [11]: 3.7%
- inhibition at 0.04 µM [12]: 3.7%
- inhibition at 0.04 µM [13]: 3.2%
- inhibition at 0.04 µM [14]: -0.434%
- % Inhibition ([15]; 0.2μM, 1 mM ATP): almost completely inhibited
- inhibition at 0.2 µM ([15]; 0.2μM, 1 mM ATP): 96.1%
- pIC50 ([15]; ATP: 1 mM): 7.81
- inhibition at 0.2 µM [16]: -3.6%
- inhibition at 0.2 µM [17]: -0.122%
- inhibition at 0.2 µM [18]: -4.8%
- inhibition at 0.2 µM [19]: 17.9%
- inhibition at 0.2 µM [20]: -8.6%
- inhibition at 0.2 µM [21]: 1.3%
- inhibition at 0.2 µM [22]: 8.1%
- inhibition at 0.2 µM [23]: 3.4%
- inhibition at 0.2 µM [24]: 0.0922%
- inhibition at 0.2 µM [25]: -5.2%
- inhibition at 0.2 µM [26]: -0.6%
- inhibition at 0.2 µM [27]: 2.1%
- inhibition at 0.2 µM [28]: -3.1%
- inhibition at 0.2 µM [29]: -2.5%
- Mean trough plasma concentration ([30]; 400 mg dosing): ~ 320 ng/mL and ~800 nM
- Peak plasma concentration ([30]; 600 mg dosing in human): around 1650 nM
- Mean trough plasma concentration ([30]; 600 mg dosing): ~480 ng/mL and ~1200 nM
